Each structure is given as a SMILES string.

The term EC50 denotes the midpoint of the concentration-response curve. The low end stands for higher potency in that assay, the high end for lower potency in that assay.

The target of this assay is T1, IDO1 (Homo sapiens, UniProt P14902).
T1 construct: HeLa cells were treated with a test compound in the presence of IFNγ, which induces IDO1 expression; host or cells: H1-HeLa cells, IDO1 induced with IFNγ
T1 sequence (P14902 whole entry): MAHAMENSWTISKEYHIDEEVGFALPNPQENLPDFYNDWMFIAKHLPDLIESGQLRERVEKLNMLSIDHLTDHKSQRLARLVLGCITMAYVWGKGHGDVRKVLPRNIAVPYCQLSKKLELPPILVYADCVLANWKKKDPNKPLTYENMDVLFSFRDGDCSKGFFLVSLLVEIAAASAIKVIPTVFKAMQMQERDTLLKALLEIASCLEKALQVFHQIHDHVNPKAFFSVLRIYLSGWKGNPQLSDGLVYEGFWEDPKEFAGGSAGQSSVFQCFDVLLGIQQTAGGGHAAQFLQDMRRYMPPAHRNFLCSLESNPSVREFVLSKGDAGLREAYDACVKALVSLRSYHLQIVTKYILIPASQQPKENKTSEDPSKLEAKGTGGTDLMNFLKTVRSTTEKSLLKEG
The experiment in a line: Cell-based (HeLa) assay for measurement of IDO1 inhibition (kynurenine levels in supernatant after IFNγ induction). The note with it: HeLa cells, IFNγ-induced IDO1, kynurenine in supernatant after 48 hour incubation; geometric mean of a minimum of four determinations. Summed up:
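IDO1 activity is read as kynurenine released into the medium, detected with Ehrlich's reagent (p-dimethylaminobenzaldehyde) at 480 nm after TCA treatment. HeLa cells were exposed 48 h to compounds in 0.5% DMSO alongside IFNγ induction. Values normalized to no-IFNγ and IFNγ controls; four-parameter EC50 given as geometric mean of ≥4 determinations.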
`O/N=C(\Nc1ccc(F)c(Cl)c1)c1ccnc2nc(NCC3CC3)[nH]c12` [Example 161, N-(3-Chloro-4-fluorophenyl)-2-((cyclopropylmethyl)amino)-N′-hydroxy-1H-imidazo[4,5-b]pyridine-7-carboximidamide] came in with an EC50 of 0.655 µM. The result for `O/N=C(\Nc1ccc(F)c(Cl)c1)c1ccnc2nc(NC3CC(F)(F)C3)[nH]c12` [Example 162, N-(3-Chloro-4-fluorophenyl)-2-((3,3-difluorocyclobutyl)amino)-N′-hydroxy-1H-imidazo[4,5-b]pyridine-7-carboximidamide] reads 4.02 µM; that for `CCNc1nc2nccc(/C(=N/O)Nc3ccc(F)c(Cl)c3)c2[nH]1` [Example 163, N-(3-Chloro-4-fluorophenyl)-2-(ethylamino)-N′-hydroxy-1H-imidazo[4,5-b]pyridine-7-carboximidamide], 1.08 µM. The result for `O/N=C(\Nc1ccc(F)c(Cl)c1)c1ccnc2nc(NC3CCC3)[nH]c12` [Example 164, N-(3-Chloro-4-fluorophenyl)-2-(cyclobutylamino)-N′-hydroxy-1H-imidazo[4,5-b]pyridine-7-carboximidamide] reads 0.798 µM.

As for `CC(C)Nc1nc2nccc(/C(=N/O)Nc3ccc(F)c(Cl)c3)c2[nH]1` [Example 165, N-(3-Chloro-4-fluorophenyl)-N′-hydroxy-2-(isopropylamino)-1H-imidazo[4,5-b]pyridine-7-carboximidamide], the concentration giving a half-maximal response (EC50) was determined as 0.705 µM.

`CNc1nc2nccc(/C(=N/O)Nc3cccc(Cl)c3)c2[nH]1` [Example 166, N-(3-Chlorophenyl)-N′-hydroxy-2-(methylamino)-1H-imidazo[4,5-b]pyridine-7-carboximidamide] had an EC50 of 0.383 µM. The result for `CCN(CC)CCNc1nc2nccc(/C(=N/O)Nc3ccc(F)c(Cl)c3)c2[nH]1` [Example 167, N-(3-Chloro-4-fluorophenyl)-2-((2-(diethylamino)ethyl)amino)-N′-hydroxy-1H-imidazo[4,5-b]pyridine-7-carboximidamide] reads 2.91 µM.

As to `O/N=C(\Nc1ccc(F)c(Cl)c1)c1ccnc2nc(NCCN3CCOCC3)[nH]c12` [Example 168, N-(3-Chloro-4-fluorophenyl)-N′-hydroxy-2-((2-morpholinoethyl)amino)-1H-imidazo[4,5-b]pyridine-7-carboximidamide], the midpoint of the response, the EC50, lay at 1.16 µM. The compound `CN(C)c1nc2nccc(/C(=N/O)Nc3ccc(F)c(Cl)c3)c2[nH]1` [Example 169, N-(3-Chloro-4-fluorophenyl)-2-(dimethylamino)-N′-hydroxy-1H-imidazo[4,5-b]pyridine-7-carboximidamide] had an EC50 of 6.27 µM. Turning to `O/N=C(\Nc1ccc(F)c(C(F)(F)F)c1)c1ccnc2[nH]c(CCl)nc12` [Example 170, 2-(Chloromethyl)-N-(4-fluoro-3-(trifluoromethyl)phenyl)-N′-hydroxy-3H-imidazo[4,5-b]pyridine-7-carboximidamide], the EC50 amounted to 1.94 µM. Turning to `OCc1nc2c(/C(=N/O)Nc3ccc(F)c(C(F)(F)F)c3)ccnc2[nH]1` [Example 171, N-(4-Fluoro-3-(trifluoromethyl)phenyl)-N′-hydroxy-2-(hydroxymethyl)-3H-imidazo[4,5-b]pyridine-7-carboximidamide], the EC50 is 4 µM. The result for `CC(O)c1nc2nccc(/C(=N/O)Nc3ccc(F)c(Cl)c3)c2[nH]1` (stereo not shown) [Example 172, N-(3-Chloro-4-fluorophenyl)-N′-hydroxy-2-(1-hydroxyethyl)-1H-imidazo[4,5-b]pyridine-7-carboximidamide] reads 3.86 µM. The result for `O/N=C(\Nc1ccc(F)c(Cl)c1)c1ccnc2nc(C(O)c3ccccc3)[nH]c12` (stereo not shown) [Example 173, N-(3-Chloro-4-fluorophenyl)-N′-hydroxy-2-(hydroxy(phenyl)methyl)-1H-imidazo[4,5-b]pyridine-7-carboximidamide] reads 9.7 µM.

Source of the values: patent publication US9951065B2 (Gilead Sciences, Inc., priority 2015, dated 2018).
